Legend:
Polycomb protein EED = Polycomb protein EED (Homo sapiens, UniProt O75530); assay: Inhibition of EED (unknown origin)
eIF-2-alpha kinase GCN2 [1] = target: T1, eIF-2-alpha kinase GCN2 (Homo sapiens, UniProt Q9P2K8); assay: Inhibition of human recombinant GCN2 using eIF2alpha as substrate
A2780 = assay: Anticancer activity against human A2780 cells assessed as cell growth measured after 48 hrs by MTT assay; type: functional, cell-based; details: A2780, 48 h
[2] = Anticancer activity against human A2780AD cells assessed as cell growth measured after 48 hrs by MTT assay; type: functional, cell-based
Tubulin [3] = assay: Inhibition of tubulin polymerization (unknown origin); type: protein-complex assay, Homo sapiens
[4] = target: T2, Ubiquitin carboxyl-terminal hydrolase 28 (Homo sapiens, UniProt Q96RU2); assay: Inhibition of USP28 (unknown origin)
T2 sequence (Q96RU2 whole entry): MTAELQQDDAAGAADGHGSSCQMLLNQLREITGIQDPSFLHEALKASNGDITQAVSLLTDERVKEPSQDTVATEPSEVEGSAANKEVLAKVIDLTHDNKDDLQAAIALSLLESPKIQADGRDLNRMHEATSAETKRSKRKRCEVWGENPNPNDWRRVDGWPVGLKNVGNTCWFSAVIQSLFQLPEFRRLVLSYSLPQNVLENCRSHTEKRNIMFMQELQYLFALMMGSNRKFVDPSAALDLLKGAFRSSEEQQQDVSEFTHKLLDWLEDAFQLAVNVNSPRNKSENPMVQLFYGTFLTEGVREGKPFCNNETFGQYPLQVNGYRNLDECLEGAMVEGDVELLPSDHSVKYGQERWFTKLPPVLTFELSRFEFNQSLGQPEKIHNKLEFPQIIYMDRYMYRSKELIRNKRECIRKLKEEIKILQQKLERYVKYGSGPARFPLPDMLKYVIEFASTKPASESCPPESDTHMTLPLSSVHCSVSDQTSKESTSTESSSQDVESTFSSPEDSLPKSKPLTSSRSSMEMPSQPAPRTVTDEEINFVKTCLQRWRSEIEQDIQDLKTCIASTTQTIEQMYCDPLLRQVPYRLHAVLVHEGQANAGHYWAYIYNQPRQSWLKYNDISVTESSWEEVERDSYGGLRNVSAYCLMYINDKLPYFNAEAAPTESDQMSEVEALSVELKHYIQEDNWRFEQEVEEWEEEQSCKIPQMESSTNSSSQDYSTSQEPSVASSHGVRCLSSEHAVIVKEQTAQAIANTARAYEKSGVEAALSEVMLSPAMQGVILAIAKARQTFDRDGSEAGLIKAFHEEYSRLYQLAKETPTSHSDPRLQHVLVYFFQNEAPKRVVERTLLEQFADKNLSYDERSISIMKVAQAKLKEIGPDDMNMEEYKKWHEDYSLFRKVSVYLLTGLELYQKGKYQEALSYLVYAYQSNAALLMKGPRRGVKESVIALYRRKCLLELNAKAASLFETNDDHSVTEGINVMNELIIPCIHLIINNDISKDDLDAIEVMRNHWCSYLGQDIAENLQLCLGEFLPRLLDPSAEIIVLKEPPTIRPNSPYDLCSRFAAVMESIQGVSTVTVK

[5] = target: Ubiquitin carboxyl-terminal hydrolase 7 (Homo sapiens, UniProt Q93009); assay: Inhibition of USP7 (unknown origin)
Ubiquitin carboxyl-terminal hydrolase 7, sequence (Q93009 whole entry): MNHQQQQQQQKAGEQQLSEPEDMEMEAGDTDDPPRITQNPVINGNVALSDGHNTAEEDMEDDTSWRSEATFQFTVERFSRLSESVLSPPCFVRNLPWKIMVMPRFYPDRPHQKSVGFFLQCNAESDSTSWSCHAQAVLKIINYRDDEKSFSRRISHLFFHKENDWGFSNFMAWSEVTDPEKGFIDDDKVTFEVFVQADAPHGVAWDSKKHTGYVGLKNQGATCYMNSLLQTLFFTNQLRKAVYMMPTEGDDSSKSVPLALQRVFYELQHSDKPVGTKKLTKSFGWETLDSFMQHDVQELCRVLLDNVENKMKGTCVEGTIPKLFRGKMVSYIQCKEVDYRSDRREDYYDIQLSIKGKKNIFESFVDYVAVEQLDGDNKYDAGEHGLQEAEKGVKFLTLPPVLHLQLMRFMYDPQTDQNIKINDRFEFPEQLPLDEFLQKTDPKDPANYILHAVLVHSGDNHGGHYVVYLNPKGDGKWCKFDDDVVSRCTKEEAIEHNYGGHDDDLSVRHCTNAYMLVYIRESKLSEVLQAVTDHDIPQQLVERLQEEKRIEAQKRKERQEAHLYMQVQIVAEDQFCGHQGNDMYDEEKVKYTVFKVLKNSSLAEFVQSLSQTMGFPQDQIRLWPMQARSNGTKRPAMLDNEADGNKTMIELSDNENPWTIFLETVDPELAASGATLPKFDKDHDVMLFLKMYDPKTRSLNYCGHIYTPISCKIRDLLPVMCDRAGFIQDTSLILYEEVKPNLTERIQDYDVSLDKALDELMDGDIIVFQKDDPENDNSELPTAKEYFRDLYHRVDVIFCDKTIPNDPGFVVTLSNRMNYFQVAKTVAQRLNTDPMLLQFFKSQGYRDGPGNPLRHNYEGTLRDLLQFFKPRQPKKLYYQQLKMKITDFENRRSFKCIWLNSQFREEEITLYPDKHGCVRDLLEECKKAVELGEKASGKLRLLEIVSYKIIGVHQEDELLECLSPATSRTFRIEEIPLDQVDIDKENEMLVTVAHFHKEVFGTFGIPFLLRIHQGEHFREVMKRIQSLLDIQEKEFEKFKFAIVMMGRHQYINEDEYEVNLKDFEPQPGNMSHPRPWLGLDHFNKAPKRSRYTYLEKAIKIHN

[6] = target: Lysine-specific histone demethylase 1A (Homo sapiens, UniProt O60341); assay: Inhibition of LSD1 (unknown origin)
G-401 = assay: Anticancer activity against human G-401 cells assessed as cell growth inhibition; type: functional, cell-based
SW620/AD300 = assay: Antitumor activity against […] SW620/AD300 cells xenografted in BALB/c nude mouse assessed as relative tumor proliferation rate at 100 mg/kg/day, IG measured after 15 days relative to control; type: functional, Homo sapiens; details: time 15 day
eIF-2-alpha kinase GCN2 [7] = target: T1, eIF-2-alpha kinase GCN2; assay: Inhibition of human GCN2 (unknown origin)
Tubulin [8] = assay: Inhibition of tubulin polymerization (unknown origin) by spectrophotometric analysis; type: protein-complex assay, Homo sapiens
Tubulin (Homo sapiens) = Tubulin (Homo sapiens) (UniProt P68371+Q9H4B7+P0DPH7+P68366+Q13509+Q71U36+P04350+Q3ZCM7+P07437+P68363+Q9BQE3+Q6PEY2+Q13885+Q9BVA1+Q9BUF5); assay: Inhibition of tubulin polymerization (unknown origin) at 10 uM by spectrophotometric analysis relative to control; type: protein-complex assay

T1 sequence (Q9P2K8 whole entry): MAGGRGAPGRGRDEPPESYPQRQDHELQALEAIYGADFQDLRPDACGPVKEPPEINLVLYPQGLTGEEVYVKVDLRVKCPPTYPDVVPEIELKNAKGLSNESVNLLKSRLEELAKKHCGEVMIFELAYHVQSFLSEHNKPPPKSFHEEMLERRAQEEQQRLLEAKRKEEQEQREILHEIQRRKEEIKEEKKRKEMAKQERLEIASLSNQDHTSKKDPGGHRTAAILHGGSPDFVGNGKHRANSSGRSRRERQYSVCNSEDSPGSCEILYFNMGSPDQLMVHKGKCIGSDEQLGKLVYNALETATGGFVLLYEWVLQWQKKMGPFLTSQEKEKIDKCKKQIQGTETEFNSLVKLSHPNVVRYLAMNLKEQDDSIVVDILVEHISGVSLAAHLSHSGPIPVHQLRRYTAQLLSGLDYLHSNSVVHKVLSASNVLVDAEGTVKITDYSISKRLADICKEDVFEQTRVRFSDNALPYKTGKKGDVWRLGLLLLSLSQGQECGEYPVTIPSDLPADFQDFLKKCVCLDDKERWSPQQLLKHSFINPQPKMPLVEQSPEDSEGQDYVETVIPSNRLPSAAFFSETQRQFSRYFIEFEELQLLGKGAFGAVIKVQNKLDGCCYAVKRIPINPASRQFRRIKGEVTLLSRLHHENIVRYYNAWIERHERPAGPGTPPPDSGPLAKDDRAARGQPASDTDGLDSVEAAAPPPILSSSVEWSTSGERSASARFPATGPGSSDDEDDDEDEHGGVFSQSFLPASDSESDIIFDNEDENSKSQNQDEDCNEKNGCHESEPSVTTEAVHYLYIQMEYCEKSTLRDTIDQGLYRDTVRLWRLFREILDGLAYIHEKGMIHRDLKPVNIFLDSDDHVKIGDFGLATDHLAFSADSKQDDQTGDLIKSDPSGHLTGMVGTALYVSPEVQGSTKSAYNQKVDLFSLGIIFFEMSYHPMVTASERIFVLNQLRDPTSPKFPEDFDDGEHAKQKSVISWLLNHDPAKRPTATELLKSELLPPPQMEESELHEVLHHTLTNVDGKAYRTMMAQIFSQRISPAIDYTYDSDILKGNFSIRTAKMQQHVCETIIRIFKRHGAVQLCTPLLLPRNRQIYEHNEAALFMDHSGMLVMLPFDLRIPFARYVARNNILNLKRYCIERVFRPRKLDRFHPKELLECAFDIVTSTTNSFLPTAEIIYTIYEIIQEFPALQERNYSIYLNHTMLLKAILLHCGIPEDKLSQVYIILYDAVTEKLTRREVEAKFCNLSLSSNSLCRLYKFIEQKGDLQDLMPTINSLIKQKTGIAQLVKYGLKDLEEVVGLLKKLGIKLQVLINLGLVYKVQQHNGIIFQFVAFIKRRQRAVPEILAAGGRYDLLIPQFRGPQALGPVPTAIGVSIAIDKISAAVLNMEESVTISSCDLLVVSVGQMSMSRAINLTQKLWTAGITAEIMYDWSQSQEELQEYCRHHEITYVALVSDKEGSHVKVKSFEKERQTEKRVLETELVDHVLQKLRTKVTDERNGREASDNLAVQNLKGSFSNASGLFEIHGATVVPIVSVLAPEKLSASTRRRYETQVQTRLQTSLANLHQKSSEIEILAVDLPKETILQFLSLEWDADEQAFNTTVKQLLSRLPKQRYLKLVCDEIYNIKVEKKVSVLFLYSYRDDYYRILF
Polycomb protein EED, sequence (O75530 whole entry): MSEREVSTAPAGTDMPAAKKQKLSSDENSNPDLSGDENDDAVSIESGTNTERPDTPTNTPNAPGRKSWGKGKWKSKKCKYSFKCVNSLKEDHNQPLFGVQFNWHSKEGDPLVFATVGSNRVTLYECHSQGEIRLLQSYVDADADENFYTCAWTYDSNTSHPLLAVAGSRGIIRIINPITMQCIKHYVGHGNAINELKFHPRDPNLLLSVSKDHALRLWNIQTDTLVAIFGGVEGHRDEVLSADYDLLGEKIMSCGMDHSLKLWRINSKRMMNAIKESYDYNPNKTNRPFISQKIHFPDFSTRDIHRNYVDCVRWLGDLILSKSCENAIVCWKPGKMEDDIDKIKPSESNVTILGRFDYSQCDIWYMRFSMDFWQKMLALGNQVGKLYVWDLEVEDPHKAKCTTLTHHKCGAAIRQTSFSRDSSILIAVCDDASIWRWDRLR

With `Cc1ncccc1-c1cnc(NCc2c(F)cc(N)c3c2CCO3)n2cnnc12` the IC50 (Polycomb protein EED) was 50 nM.

For `COc1ccc(-n2nnc3cnc(Nc4ccc(N)c(C)c4)nc32)cc1`, the IC50 (eIF-2-alpha kinase GCN2 [1]) was 4 nM.

In the case of `CO[C@H]1C[C@H]2CC[C@@H](C1)N2c1c(-c2c(F)cc(F)cc2F)c(Cl)nc2ncnn12`, the IC50 (A2780) is reported as 51 nM and the IC50 [2] is reported as 81 nM.

`Cc1cc(Nc2ccc(F)cc2)n2nc(NCCCc3ccccc3)nc2n1` showed an IC50 (Tubulin [3]) of 390 nM.

With `CCCSc1nc(NCCN)c2nnn(Cc3ccc(Cl)cc3)c2n1` the IC50 [4] was 1100 nM, the IC50 [5] was greater than 100000 nM and the IC50 [6] was greater than 100000 nM.

With `COc1cc(-c2cc(-c3ccc(Cl)cc3)nc3nc(N)nn23)cc(OC)c1OC` the IC50 (Tubulin [3]) was 3840 nM.

`N#Cc1c2c(c3nncn3c1NCc1ccco1)CN(Cc1ccccc1)CC2` showed an IC50 (G-401) of 3280 nM.

For `Cc1cc(Nc2ccccc2)n2nc(SCc3nc4ccccc4[nH]3)nc2n1`, the T/C (SW620/AD300) was 29.7%.

Molecule `c1nn(C2CCOCC2)cc1Nc1ncc2nnn(-c3ccc4cn[nH]c4c3)c2n1` has an IC50 (eIF-2-alpha kinase GCN2 [7]) of less than 300 nM.

For `COc1ccc(-c2c(C(C)=O)c(C)nc3nc(-c4cc(OC)c(OC)c(OC)c4)nn23)cc1[N+](=O)[O-]`, the IC50 (Tubulin [8]) was 9900 nM.

`COc1cc(-c2nc3nc(C)c(C(C)=O)c(-c4ccc([N+](=O)[O-])cc4)n3n2)cc(OC)c1OC` showed an inhibition (Tubulin (Homo sapiens)) of 42%.

Molecule `CCOc1ccc(-n2nnc3cnc(Nc4cnn(C5CCOCC5)c4)nc32)cc1` has an IC50 (eIF-2-alpha kinase GCN2 [7]) of 16 nM.

With `CS(=O)(=O)c1ccc(-c2cnc(NCc3ccco3)n3cnnc23)cc1` the IC50 (Polycomb protein EED) was 30 nM and the IC50 (G-401) was 85000 nM.

— ChEMBL document CHEMBL5346898, “Triazole-fused pyrimidines in target-based anticancer drug discovery” (Eur J Med Chem, 2023)
